Measured values reported in EPA's ToxValDB 9.5 (doi:10.2903/j.efsa.2010.1565).
In brackets after ≈: the same amount, converted by molar mass.

Key:
Daphnia magna = details: chronic/long-term; duration: 21 days; reproduction
Colinus virginianus = details: acute; oral; mortality
Canidae = details: chronic; duration: 1 years; oral; Dog Other; organ weight
Typhlodromus pyri = details: not reported; other
Rattus norvegicus = details: oral

Structure (SMILES): CCN(CC)C(=O)C(C)Oc1cccc2ccccc12 (configuration not stated) [Napropamide]
- NOEC (Daphnia magna): 4.3 mg/L
- LD50 (Colinus virginianus): > 2250 mg/kg
- NOEL (Anas platyrhynchos; reproductive, reproduction): 309 mg/kg-day
- LC50 (Anas platyrhynchos; short-term, oral, feed, mortality): > 1570 mg/kg-day
- LC50 (Oncorhynchus mykiss; acute, duration: 96 hours, mortality): 6.6 µg/mL (≈ 24.3 µM)
- NOEC (Oncorhynchus mykiss; chronic/long-term, duration: 28 days, growth): 1.1 mg/L
- LC50 (Tagia sp.; acute, duration: 14 days, mortality): 564 mg/kg
- NOEC (Tagia sp.; chronic/long-term, reproduction): 60 mg/kg
- NOAEL (Canidae): 50 mg/kg-day
- LEL (Typhlodromus pyri): 4500 g/ha
- LD50 (Rattus norvegicus; acute, mortality): 4680 mg/kg
- NOAEL (Rattus norvegicus; chronic, duration: 2 years, body weight): 30 mg/kg-day
